Target: T1, human PDE9A2 (Homo sapiens, UniProt O76083)
T1 construct: made in house; host or cells: Sf9 insect cells (infected); crude lysate used as enzyme source
Assay: PDE9A2 enzymatic activity assay (scintillation proximity assay, SPA)
Assay type: biochemical
Settings: for inhibition at 10 µM: read-out: % inhibition of PDE9A2 (at 10 micromolar concentration), 10 micromolar concentration; for IC50: reported only as range 1-100 or 101-1200 nanomolar, specific value lies within range, read-out: IC50 within range [nanomolar (nM)]

[1] = values above 100% adjusted to 100%

T1 sequence (O76083 1-533 isoform O76083-2): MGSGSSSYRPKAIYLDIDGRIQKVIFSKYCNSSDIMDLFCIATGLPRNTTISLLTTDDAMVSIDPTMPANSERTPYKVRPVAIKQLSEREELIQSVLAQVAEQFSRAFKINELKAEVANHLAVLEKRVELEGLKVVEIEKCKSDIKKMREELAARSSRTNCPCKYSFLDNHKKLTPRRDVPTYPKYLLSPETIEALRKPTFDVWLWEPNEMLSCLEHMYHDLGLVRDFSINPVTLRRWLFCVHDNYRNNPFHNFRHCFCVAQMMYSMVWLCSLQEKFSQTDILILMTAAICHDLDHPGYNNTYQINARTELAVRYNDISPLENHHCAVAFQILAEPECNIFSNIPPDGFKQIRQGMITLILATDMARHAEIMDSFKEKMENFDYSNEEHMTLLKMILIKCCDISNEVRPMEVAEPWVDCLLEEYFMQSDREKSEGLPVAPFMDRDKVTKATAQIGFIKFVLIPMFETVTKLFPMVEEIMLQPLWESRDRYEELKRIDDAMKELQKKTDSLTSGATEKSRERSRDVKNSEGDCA

O=c1[nH]c(Cc2c(F)cccc2Cl)nc2c1cnn2C1CCOCC1 [Example 6]
inhibition at 10 µM [1]: 98% | IC50: 1 to 100 nM

O=c1[nH]c(Cc2ncccc2C(F)(F)F)nc2c1cnn2C1CCOCC1 [Example 63]
inhibition at 10 µM [1]: 92% | IC50: 101 to 1200 nM

CC1CC(n2ncc3c(=O)[nH]c(CC4CCC4)nc32)CCO1 (racemic) [Example 120]
inhibition at 10 µM [1]: 95% | IC50: 1 to 100 nM

O=c1[nH]c(Cc2cccc(C(F)(F)F)c2)nc2c1cnn2C1CCOCC1 [Example 44]
inhibition at 10 µM [1]: 99% | IC50: 1 to 100 nM

O=c1[nH]c(Cc2ccccc2OC2CCOCC2)nc2c1cnn2C1CCOCC1 [Example 60]
inhibition at 10 µM [1]: 97% | IC50: 1 to 100 nM

CCC(Cc1nc2c(cnn2C2CCN(C)C2)c(=O)[nH]1)C(F)(F)F (mixture of isomers) [Example 213]
inhibition at 10 µM [1]: 86% | IC50: 101 to 1200 nM

CCCc1nc2c(cnn2C2CCOCC2)c(=O)[nH]1 [Example 29]
inhibition at 10 µM [1]: 96% | IC50: 1 to 100 nM

O=C(c1ccccc1)N1CCC(n2ncc3c(=O)[nH]c(CC4CCC4)nc32)C1 (racemic) [Example 171]
inhibition at 10 µM [1]: 100% | IC50: 101 to 1200 nM

COc1ccccc1Cc1nc2c(cnn2C2CCOC2)c(=O)[nH]1 (racemic) [Example 83]
inhibition at 10 µM [1]: 96% | IC50: 1 to 100 nM

O=c1[nH]c(Cc2cccc(Cl)c2)nc2c1cnn2C1CCOCC1 [Example 39]
inhibition at 10 µM [1]: 99% | IC50: 1 to 100 nM

O=C(c1ccccc1)N1CCCC(n2ncc3c(=O)[nH]c(CC4CCC4)nc32)C1 (racemic) [Example 181]
inhibition at 10 µM [1]: 96% | IC50: 1 to 100 nM

N#Cc1ccccc1Cc1nc2c(cnn2C2CCOCC2)c(=O)[nH]1 [Example 53]
inhibition at 10 µM [1]: 99% | IC50: 1 to 100 nM

CC(C)Cc1nc2c(cnn2C2CCOC(C)(C)C2)c(=O)[nH]1 (racemic) [Example 106]
inhibition at 10 µM [1]: 87% | IC50: 101 to 1200 nM

O=c1[nH]c(Cc2cc(F)cc(F)c2)nc2c1cnn2C1CCOCC1 [Example 7]
inhibition at 10 µM [1]: 98% | IC50: 1 to 100 nM

O=C(c1ccccc1)N1CCCC(n2ncc3c(=O)[nH]c(CC4CCCC4)nc32)C1 (racemic) [Example 183]
inhibition at 10 µM [1]: 99% | IC50: 1 to 100 nM

O=C(c1ccccc1)N1CCCC(n2ncc3c(=O)[nH]c(Cc4ccccc4F)nc32)C1 (racemic) [Example 186]
inhibition at 10 µM [1]: 97% | IC50: 1 to 100 nM

O=C(Oc1ccc(F)cc1)N1CCCC(n2ncc3c(=O)[nH]c(CC4CCCC4)nc32)C1 (racemic) [Example 162]
inhibition at 10 µM [1]: 98% | IC50: 1 to 100 nM

O=c1[nH]c(Cc2ccccn2)nc2c1cnn2C1CCCCO1 (racemic) [Example 145]
inhibition at 10 µM [1]: 84% | IC50: 101 to 1200 nM

CC(C)Cc1nc2c(cnn2C2CCOC2)c(=O)[nH]1 (single isomer, unassigned) [Example 132-3]
inhibition at 10 µM [1]: 89% | IC50: 101 to 1200 nM

CN(C)C(=O)N1CCCC(n2ncc3c(=O)[nH]c(Cc4ccccc4)nc32)C1 (racemic) [Example 159]
inhibition at 10 µM [1]: 100% | IC50: 1 to 100 nM

O=c1[nH]c(Cc2cccnc2)nc2c1cnn2C1CCOC1 (racemic) [Example 78]
inhibition at 10 µM [1]: 99% | IC50: 101 to 1200 nM

O=c1[nH]c(CC2CCCC2)nc2c1cnn2C1CCNC1 (racemic) [Example 194]
inhibition at 10 µM [1]: 97% | IC50: 101 to 1200 nM

CC1CC(n2ncc3c(=O)[nH]c(CC4CCCC4)nc32)CCO1 (racemic) [Example 117]
% inhibition of PDE9A2 (at 10 micromolar concentration) (10 micromolar concentration, values above 100% adjusted to 100%): 97% | IC50: 1 to 100 nM

O=c1[nH]c(CC2CCCC2)nc2c1cnn2C1CCCOC1 (racemic) [Example 90]
inhibition at 10 µM [1]: 100% | IC50: 1 to 100 nM

CC(=O)N1CCCC(n2ncc3c(=O)[nH]c(Cc4cccc(C(F)(F)F)c4)nc32)C1 (racemic) [Example 184]
inhibition at 10 µM [1]: 97% | IC50: 1 to 100 nM

Cc1cccnc1Cc1nc2c(cnn2C2CCCOC2)c(=O)[nH]1 (racemic) [Example 100]
inhibition at 10 µM [1]: 93% | IC50: 101 to 1200 nM

O=c1[nH]c(Cc2ccc(F)c(Cl)c2)nc2c1cnn2C1CCOC1 (racemic) [Example 71]
inhibition at 10 µM [1]: 99% | IC50: 1 to 100 nM

O=c1[nH]c(Cc2c(F)ccc(F)c2Cl)nc2c1cnn2C1CCOCC1 [Example 37]
inhibition at 10 µM [1]: 97% | IC50: 1 to 100 nM

CCC(C)Cc1nc2c(cnn2C2CCOCC2)c(=O)[nH]1 (racemic) [Example 135]
inhibition at 10 µM [1]: 98% | IC50: 1 to 100 nM

O=c1[nH]c(Cc2ccc(F)cc2)nc2c1cnn2C1CCOC1 (racemic) [Example 79]
inhibition at 10 µM [1]: 99% | IC50: 1 to 100 nM

CN1CCC(n2ncc3c(=O)[nH]c(Cc4ccccc4OC(F)(F)F)nc32)CC1 [Example 150]
inhibition at 10 µM [1]: 90% | IC50: 101 to 1200 nM

O=c1[nH]c(CCCC(F)(F)F)nc2c1cnn2C1CCOCC1 [Example 25]
inhibition at 10 µM [1]: 96% | IC50: 1 to 100 nM

COc1ccccc1Cc1nc2c(cnn2C2CCOCC2)c(=O)[nH]1 [Example 49]
inhibition at 10 µM [1]: 98% | IC50: 1 to 100 nM

O=C1CC(n2ncc3c(=O)[nH]c(CC4CCCC4)nc32)CCO1 (stereo not shown) [Example 233]
inhibition at 10 µM [1]: 100% | IC50: 1 to 100 nM

CCOc1ccccc1Cc1nc2c(cnn2C2CCOC2)c(=O)[nH]1 (racemic) [Example 82]
inhibition at 10 µM [1]: 100% | IC50: 1 to 100 nM

O=c1[nH]c(CC2CCC2)nc2c1cnn2C1CCOCC1 [Example 43]
inhibition at 10 µM [1]: 98% | IC50: 1 to 100 nM

COc1ccc(Cc2nc3c(cnn3C3CCOCC3)c(=O)[nH]2)cc1 [Example 11]
inhibition at 10 µM [1]: 98% | IC50: 1 to 100 nM

Cc1cc(C)cc(Cc2nc3c(cnn3C3CCOCC3)c(=O)[nH]2)c1 [Example 36]
inhibition at 10 µM [1]: 100% | IC50: 1 to 100 nM

CN1CCC(n2ncc3c(=O)[nH]c(CC4CCCC4)nc32)CC1 [Example 149]
inhibition at 10 µM [1]: 95% | IC50: 101 to 1200 nM

CC(Cc1nc2c(cnn2C2CCOCC2)c(=O)[nH]1)C(F)(F)F (single isomer, unassigned) [Example 131]
inhibition at 10 µM [1]: 97% | IC50: 1 to 100 nM

O=c1[nH]c(CC2CCCC2)nc2c1cnn2C1CCCNC1 (racemic) [Example 196]
inhibition at 10 µM [1]: 91% | IC50: 101 to 1200 nM

O=c1[nH]c(CC2CCOC2)nc2c1cnn2C1CCOC1 (mixture of isomers) [Example 81]
inhibition at 10 µM [1]: 78% | IC50: 101 to 1200 nM

O=c1[nH]c(Cc2ccccc2OC(F)(F)F)nc2c1cnn2C1CCNC1 (racemic) [Example 200]
inhibition at 10 µM [1]: 91% | IC50: 101 to 1200 nM

CC1CC(n2ncc3c(=O)[nH]c(CC4CCCC4)nc32)CCO1 (racemic) [Example 112]
inhibition at 10 µM [1]: 97% | IC50: 1 to 100 nM

CC(=O)N1CCCC(n2ncc3c(=O)[nH]c(CC(C)C)nc32)C1 (racemic) [Example 189]
inhibition at 10 µM [1]: 90% | IC50: 101 to 1200 nM

CCC(CC)Cc1nc2c(cnn2C2CCOCC2)c(=O)[nH]1 [Example 133, 6-(2-Ethyl-butyl)-1-(tetrahydro-pyran-4-yl)-1,5-dihydro-pyrazolo[3,4-d]pyrimidin-4-one]
inhibition at 10 µM [1]: 98% | IC50: 1 to 100 nM

O=c1[nH]c(Cc2cccnc2)nc2c1cnn2C1CCOCC1 [Example 123]
inhibition at 10 µM [1]: 91% | IC50: 101 to 1200 nM

O=c1[nH]c(Cc2cc(Cl)cc(Cl)c2)nc2c1cnn2C1CCOCC1 [Example 38]
inhibition at 10 µM [1]: 99% | IC50: 1 to 100 nM

CC(=O)N1CCC(n2ncc3c(=O)[nH]c(CC4CCCC4)nc32)CC1 [Example 151]
inhibition at 10 µM [1]: 92% | IC50: 101 to 1200 nM

CC(C)Cc1nc2c(cnn2C2CCOC(C)C2)c(=O)[nH]1 (racemic) [Example 114]
inhibition at 10 µM [1]: 89% | IC50: 101 to 1200 nM

O=c1[nH]c(CC2CC2)nc2c1cnn2C1CCOCC1 [Example 47]
inhibition at 10 µM [1]: 97% | IC50: 1 to 100 nM

COC(=O)N1CCCC(n2ncc3c(=O)[nH]c(CC4CCCC4)nc32)C1 (racemic) [Example 154]
inhibition at 10 µM [1]: 100% | IC50: 1 to 100 nM

CC(C)Oc1ccccc1Cc1nc2c(cnn2C2CCOCC2)c(=O)[nH]1 [Example 54]
inhibition at 10 µM [1]: 97% | IC50: 1 to 100 nM

O=c1[nH]c(CC2CC2)nc2c1cnn2C1CCOC1 (racemic) [Example 80]
inhibition at 10 µM [1]: 94% | IC50: 1 to 100 nM

O=c1[nH]c(CC2CCCC2)nc2c1cnn2C1CCOCC1 [Example 134]
inhibition at 10 µM [1]: 99% | IC50: 1 to 100 nM

N#Cc1ccccc1Cc1nc2c(cnn2C2CCCOC2)c(=O)[nH]1 (racemic) [Example 126]
inhibition at 10 µM [1]: 98% | IC50: 1 to 100 nM

COc1ccccc1Cc1nc2c(cnn2C2CCN(C(C)=O)C2)c(=O)[nH]1 (racemic) [Example 168]
inhibition at 10 µM [1]: 90% | IC50: 101 to 1200 nM

O=c1[nH]c(Cc2ccccc2OC(F)(F)F)nc2c1cnn2C1CCCNC1 (racemic) [Example 198]
inhibition at 10 µM [1]: 100% | IC50: 101 to 1200 nM

CCc1cc(OC)ccc1Cc1nc2c(cnn2C2CCOCC2)c(=O)[nH]1 [Example 235]
inhibition at 10 µM [1]: 98% | IC50: 101 to 1200 nM

CC1CC(n2ncc3c(=O)[nH]c(Cc4ccccc4C#N)nc32)CCO1 (racemic) [Example 121]
inhibition at 10 µM [1]: 94% | IC50: 101 to 1200 nM

O=c1[nH]c(CC2CCCC2)nc2c1cnn2C1CCCCO1 (racemic) [Example 147]
inhibition at 10 µM [1]: 99% | IC50: 1 to 100 nM

O=c1[nH]c(Cc2ccccc2OC(F)(F)F)nc2c1cnn2C1CCOCC1 [Example 138]
inhibition at 10 µM [1]: 100% | IC50: 1 to 100 nM

Cc1cccnc1Cc1nc2c(cnn2C2CCOCC2)c(=O)[nH]1 [Example 56]
inhibition at 10 µM [1]: 95% | IC50: 1 to 100 nM

CC(C)Cc1nc2c(cnn2C2CCOCC2C)c(=O)[nH]1 (racemic) [Example 132-1]
inhibition at 10 µM [1]: 97% | IC50: 1 to 100 nM

CCC(Cc1nc2c(cnn2C2CCOCC2)c(=O)[nH]1)C(F)(F)F (single isomer, unassigned) [Example 61]
inhibition at 10 µM [1]: 97% | IC50: 1 to 100 nM

Reference: patent US8623879B2, “1-heterocyclyl-1,5-dihydro-pyrazolo[3,4-D] pyrimidin-4-one derivates and their use as PDE9A modulators” (Boehringer Ingelheim International GmbH, priority 2008, dated 2014)
